In ChEMBL document CHEMBL5465560, “Selectivity Literature for EUbOPEN Chemogenomic Library” (2024):

Legend:
[1] = biological target: T1, cGMP-dependent protein kinase 2 (Homo sapiens) (UniProt Q13237); test: Selectivity interaction (Upstate Kinase Profiler service (Millipore)) EUB0000056c PRKG2; details: at 1 µM
T1 sequence (whole entry): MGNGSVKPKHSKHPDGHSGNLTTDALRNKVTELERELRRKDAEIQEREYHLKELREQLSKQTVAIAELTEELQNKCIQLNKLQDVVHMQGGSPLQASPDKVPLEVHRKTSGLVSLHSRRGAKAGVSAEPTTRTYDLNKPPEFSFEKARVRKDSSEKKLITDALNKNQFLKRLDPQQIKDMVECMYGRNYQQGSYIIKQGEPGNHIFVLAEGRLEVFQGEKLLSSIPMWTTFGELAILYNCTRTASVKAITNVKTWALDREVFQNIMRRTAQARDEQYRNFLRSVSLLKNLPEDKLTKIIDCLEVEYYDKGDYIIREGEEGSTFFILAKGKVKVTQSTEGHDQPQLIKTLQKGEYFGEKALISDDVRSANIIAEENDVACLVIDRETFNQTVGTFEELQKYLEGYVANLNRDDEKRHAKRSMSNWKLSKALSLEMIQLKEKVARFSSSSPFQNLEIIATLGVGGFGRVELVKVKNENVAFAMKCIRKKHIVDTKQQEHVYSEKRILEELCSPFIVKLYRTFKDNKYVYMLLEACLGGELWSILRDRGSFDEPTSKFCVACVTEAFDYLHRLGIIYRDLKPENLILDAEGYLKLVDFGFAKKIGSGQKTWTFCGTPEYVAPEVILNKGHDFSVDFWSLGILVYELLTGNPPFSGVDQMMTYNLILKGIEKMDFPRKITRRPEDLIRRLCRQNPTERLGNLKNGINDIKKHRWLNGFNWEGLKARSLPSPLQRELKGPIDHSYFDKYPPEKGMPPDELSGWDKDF

[2] = biological target: T2, Muscle, skeletal receptor tyrosine-protein kinase (Homo sapiens) (UniProt O15146); test: Selectivity interaction (Upstate Kinase Profiler service (Millipore)) EUB0000056c MUSK; details: at 1 µM
T2 sequence (whole entry): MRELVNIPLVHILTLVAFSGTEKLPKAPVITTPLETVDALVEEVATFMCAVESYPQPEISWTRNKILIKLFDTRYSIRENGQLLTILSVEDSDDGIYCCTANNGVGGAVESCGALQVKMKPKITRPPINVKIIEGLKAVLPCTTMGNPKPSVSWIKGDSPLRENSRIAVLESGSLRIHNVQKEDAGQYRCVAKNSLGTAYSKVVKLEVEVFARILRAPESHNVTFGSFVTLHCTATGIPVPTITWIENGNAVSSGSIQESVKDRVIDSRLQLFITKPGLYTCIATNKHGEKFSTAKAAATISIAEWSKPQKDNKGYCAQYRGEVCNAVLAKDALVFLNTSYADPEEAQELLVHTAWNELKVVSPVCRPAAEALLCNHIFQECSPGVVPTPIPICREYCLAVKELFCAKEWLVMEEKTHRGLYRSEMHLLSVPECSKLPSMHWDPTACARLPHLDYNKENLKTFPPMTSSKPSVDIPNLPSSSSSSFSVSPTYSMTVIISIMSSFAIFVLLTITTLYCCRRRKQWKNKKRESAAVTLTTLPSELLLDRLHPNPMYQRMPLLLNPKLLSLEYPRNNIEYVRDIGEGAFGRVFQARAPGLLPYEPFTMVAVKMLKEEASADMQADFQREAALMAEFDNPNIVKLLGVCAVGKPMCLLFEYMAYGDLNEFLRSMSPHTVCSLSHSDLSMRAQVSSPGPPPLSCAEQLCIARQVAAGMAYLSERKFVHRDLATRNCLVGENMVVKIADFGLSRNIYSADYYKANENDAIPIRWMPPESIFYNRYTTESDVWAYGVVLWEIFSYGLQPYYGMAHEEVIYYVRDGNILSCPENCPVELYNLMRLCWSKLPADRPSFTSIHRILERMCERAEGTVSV

[3] = biological target: cAMP-dependent protein kinase catalytic subunit alpha (Homo sapiens, UniProt P17612); test: Selectivity interaction (KinomeScan (DiscoverX)) EUB0000666a PRKACA; details: at 10 µM
[4] = biological target: T3, Dual specificity mitogen-activated protein kinase kinase 7 (Homo sapiens) (UniProt O14733); test: Selectivity interaction (ActivX KiNativ screen (kinase selectivity in THP-1 cell lysates)) EUB0000639a MAP2K7; assay type: subcellular; details: lysate
T3 sequence (whole entry): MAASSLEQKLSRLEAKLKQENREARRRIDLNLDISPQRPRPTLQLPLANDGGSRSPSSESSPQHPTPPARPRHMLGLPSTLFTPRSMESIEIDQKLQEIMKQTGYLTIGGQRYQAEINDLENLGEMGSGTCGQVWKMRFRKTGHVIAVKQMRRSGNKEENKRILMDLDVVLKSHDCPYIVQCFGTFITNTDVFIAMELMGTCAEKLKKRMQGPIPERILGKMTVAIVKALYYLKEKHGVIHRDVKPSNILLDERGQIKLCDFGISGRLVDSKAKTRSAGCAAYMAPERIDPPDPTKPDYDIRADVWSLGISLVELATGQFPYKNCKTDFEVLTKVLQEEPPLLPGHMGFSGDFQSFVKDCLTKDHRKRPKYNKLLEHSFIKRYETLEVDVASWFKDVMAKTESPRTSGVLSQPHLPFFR

[5] = biological target: Ribosomal protein S6 kinase alpha-1 (Homo sapiens, UniProt Q15418); test: Selectivity interaction (ActivX KiNativ screen (kinase selectivity in THP-1 cell lysates)) EUB0000639a RPS6KA1; assay type: subcellular; details: lysate, at 0.2 µM
Chain of Ribosomal protein S6 kinase alpha-1 (Q15418 whole entry, canonical isoform): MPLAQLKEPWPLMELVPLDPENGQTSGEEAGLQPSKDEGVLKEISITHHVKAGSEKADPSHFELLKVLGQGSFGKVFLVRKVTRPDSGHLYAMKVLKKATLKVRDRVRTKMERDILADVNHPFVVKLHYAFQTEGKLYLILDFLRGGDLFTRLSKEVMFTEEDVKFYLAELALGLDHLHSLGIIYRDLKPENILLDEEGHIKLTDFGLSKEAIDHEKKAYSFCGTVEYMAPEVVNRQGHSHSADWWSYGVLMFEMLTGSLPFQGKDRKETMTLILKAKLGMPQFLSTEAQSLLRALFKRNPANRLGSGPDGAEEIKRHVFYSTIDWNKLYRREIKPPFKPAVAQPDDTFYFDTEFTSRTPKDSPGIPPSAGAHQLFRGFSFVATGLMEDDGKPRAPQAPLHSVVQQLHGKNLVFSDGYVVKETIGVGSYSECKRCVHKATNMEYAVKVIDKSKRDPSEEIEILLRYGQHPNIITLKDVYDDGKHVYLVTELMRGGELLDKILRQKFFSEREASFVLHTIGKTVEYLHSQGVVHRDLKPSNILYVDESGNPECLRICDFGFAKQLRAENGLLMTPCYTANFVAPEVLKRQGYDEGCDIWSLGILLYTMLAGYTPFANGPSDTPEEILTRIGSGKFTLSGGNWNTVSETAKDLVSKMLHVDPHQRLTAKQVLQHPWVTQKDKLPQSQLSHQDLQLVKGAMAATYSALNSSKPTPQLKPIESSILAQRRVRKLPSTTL

[6] = biological target: Phosphorylase b kinase gamma catalytic chain, skeletal muscle/heart isoform (Homo sapiens) (UniProt Q16816); test: Selectivity interaction (KinomeScan (DiscoverX)) EUB0000045b PHKG1
Chain of Phosphorylase b kinase gamma catalytic chain, skeletal muscle/heart isoform (Homo sapiens) (Q16816 whole entry, looked up, canonical isoform): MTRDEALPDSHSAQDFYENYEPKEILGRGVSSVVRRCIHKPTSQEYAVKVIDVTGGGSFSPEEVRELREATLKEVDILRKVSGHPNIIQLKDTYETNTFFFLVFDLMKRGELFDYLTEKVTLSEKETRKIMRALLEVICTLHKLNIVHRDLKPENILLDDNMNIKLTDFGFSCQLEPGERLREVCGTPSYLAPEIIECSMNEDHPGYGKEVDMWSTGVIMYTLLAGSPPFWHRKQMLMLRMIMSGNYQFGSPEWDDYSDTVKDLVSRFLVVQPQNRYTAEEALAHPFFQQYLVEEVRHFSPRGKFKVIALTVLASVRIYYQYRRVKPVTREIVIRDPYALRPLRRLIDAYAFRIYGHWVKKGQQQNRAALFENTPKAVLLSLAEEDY

[7] = biological target: Calcium/calmodulin-dependent protein kinase kinase 2 (Homo sapiens) (UniProt Q96RR4); test: Selectivity interaction (Ambit KINOMEscan and KiNATiv profiling in Jurkat cells) EUB0000090b CAMKK2; assay type: cell-based; details: at 1 µM
Chain of Calcium/calmodulin-dependent protein kinase kinase 2 (Homo sapiens) (Q96RR4 2-588 limits assumed): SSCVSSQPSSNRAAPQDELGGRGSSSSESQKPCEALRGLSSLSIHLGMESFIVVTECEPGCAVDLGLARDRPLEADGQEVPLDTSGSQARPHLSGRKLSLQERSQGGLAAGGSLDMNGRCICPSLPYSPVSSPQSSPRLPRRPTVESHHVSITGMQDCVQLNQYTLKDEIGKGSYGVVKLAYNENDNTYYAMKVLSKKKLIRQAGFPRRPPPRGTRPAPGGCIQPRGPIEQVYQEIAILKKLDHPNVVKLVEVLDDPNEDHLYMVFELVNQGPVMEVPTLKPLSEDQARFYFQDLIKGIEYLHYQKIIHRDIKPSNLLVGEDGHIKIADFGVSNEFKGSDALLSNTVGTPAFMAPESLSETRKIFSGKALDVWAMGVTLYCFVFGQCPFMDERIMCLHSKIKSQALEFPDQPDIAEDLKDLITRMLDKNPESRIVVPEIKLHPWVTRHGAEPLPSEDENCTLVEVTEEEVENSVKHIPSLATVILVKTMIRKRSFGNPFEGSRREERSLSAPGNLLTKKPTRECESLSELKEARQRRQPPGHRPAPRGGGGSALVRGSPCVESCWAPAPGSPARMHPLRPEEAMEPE

[8] = biological target: Serine/threonine-protein kinase MRCK beta (Homo sapiens) (UniProt Q9Y5S2); test: Selectivity interaction (Ambit KINOMEscan and KiNATiv profiling in Jurkat cells) EUB0000090b CDC42BPB; assay type: cell-based; details: at 1 µM
Chain of Serine/threonine-protein kinase MRCK beta (Homo sapiens) (Q9Y5S2 whole entry): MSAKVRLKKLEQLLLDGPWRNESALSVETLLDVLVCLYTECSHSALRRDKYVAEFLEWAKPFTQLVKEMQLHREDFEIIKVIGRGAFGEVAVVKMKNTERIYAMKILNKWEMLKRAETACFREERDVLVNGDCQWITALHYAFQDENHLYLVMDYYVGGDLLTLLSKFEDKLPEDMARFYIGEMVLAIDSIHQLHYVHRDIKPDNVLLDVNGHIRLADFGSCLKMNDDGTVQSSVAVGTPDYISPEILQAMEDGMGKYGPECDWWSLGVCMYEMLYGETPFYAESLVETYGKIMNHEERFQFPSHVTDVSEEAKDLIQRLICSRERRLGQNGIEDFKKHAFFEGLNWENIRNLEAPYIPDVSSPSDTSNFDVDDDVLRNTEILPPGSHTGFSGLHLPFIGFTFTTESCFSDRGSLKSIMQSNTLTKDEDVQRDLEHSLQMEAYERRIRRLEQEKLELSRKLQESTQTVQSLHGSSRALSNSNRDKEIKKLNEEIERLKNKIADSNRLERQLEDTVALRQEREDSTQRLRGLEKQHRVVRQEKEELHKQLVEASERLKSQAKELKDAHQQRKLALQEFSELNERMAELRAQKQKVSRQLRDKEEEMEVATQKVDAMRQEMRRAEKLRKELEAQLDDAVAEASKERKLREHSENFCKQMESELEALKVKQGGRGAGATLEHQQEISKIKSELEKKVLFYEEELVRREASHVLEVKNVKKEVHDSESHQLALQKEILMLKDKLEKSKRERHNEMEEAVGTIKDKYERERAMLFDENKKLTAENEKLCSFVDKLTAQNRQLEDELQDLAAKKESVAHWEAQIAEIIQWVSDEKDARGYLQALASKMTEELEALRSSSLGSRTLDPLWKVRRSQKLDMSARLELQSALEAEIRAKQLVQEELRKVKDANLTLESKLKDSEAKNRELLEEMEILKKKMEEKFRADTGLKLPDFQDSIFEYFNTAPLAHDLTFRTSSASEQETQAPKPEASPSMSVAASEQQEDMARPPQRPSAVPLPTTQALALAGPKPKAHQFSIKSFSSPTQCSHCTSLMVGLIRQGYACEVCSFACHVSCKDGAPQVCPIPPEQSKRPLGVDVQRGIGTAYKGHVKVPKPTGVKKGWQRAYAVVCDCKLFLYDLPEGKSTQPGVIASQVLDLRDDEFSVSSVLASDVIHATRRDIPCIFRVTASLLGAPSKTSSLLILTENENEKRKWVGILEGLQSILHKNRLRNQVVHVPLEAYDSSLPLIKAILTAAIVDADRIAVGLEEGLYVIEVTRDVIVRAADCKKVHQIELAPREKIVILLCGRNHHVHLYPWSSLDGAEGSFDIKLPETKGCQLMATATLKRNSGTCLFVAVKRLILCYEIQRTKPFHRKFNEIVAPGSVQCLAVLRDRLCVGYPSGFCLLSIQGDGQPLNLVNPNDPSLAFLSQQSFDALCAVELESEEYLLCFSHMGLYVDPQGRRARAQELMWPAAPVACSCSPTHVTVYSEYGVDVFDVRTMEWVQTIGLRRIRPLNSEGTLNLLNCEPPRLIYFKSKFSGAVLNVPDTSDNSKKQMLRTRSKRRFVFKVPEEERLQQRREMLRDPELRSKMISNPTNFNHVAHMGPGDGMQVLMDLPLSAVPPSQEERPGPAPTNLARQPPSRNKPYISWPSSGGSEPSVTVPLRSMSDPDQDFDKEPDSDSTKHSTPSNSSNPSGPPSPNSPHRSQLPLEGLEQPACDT

Cc1ccc(-c2ccc3c(ccc4sc5c(c43)NC[C@@H](C)NC5=O)n2)cn1
% of inhibition [1]: -6%
% of inhibition [2]: -7%

O=C(NOC[C@H](O)CO)c1ccc(F)c(F)c1Nc1ccc(I)cc1F
% of control [3]: 72%

CC[C@@H]1[C@H](F)C(=O)N[C@@H]1COc1nccc2cc(C(N)=O)c(OC)cc12 [ZIMLOVISERTIB]
% of inhibition ([4]; at 0.01 µM): 7.8%
% of inhibition ([4]; at 0.04 µM): 0.6%
% of inhibition ([4]; at 0.2 µM): 2.5%
% of inhibition ([4]; at 1 µM): 2.2%
% of inhibition ([4]; at 5 µM): -7.1%
% of inhibition [5]: -12.2%

C=CC(=O)Nc1cc(-n2c(=O)ccc3cnc4ccc(-c5ccc(NS(C)(=O)=O)cc5)cc4c32)ccc1C
% of control ([6]; at 1 µM): 86%
% of control ([6]; at 10 µM): 97%

CN(C)C/C=C/C(=O)Nc1ccc(C(=O)N2CCCC(Nc3ncc(Cl)c(-c4c[nH]c5ccccc45)n3)C2)cc1 (stereo not drawn)
% of control [7]: 81%
% of control [8]: 96%
